Reference: PubChem BioAssay (NCI)
“And” between values parts separate entries of the source, which are not always exact repeats. Equal values may be shown once.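 Results reflect a 48-hour exposure of cells in 96-well plates to compound at five concentrations. GI50 = concentration required for 50% inhibition of growth. The concentration for full growth arrest is given as TGI.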

Columns and labels:
Assay in all cases: NCI tumour cell line growth inhibition, 48 h
[1] = tested on: HCC-2998 colon
[2] = tested on: HCT-116 colon
[3] = tested on: HT29 colon
[4] = tested on: LOX IMVI melanoma
[5] = tested on: SF-268 CNS
[6] = tested on: SF-539 CNS
[7] = tested on: SK-MEL-2 melanoma
[8] = tested on: SK-OV-3 ovarian
[9] = tested on: SN12C renal
[10] = tested on: U251 CNS

SMILES | TGI [1] [µM] | TGI [2] [µM] | TGI [3] [µM] | TGI [4] [µM] | TGI [5] [µM] | TGI [6] | TGI [7] [µM] | TGI [8] [µM] | TGI [9] [µM] | TGI [10] [µM] | GI50 [1] | GI50 [2] | GI50 [3] | GI50 [4] | GI50 [5] | GI50 [6] | GI50 [7] | GI50 [8] | GI50 [9] | GI50 [10]
Cn1cnc([N+](=O)[O-])c1Sc1nccn1-c1ccccc1 | > 100 | > 100 | > 100 | 46.9 | > 100 | > 100 µM | 99.3 | > 100 | > 100 | > 100 | – | – | – | – | – | – | – | – | – | –
CCOC(=O)Cc1csc(Nc2nc(O)c(C3=c4ccccc4=NC3=O)s2)n1 | > 100 | 26.5 | > 100 | 54.2 | > 100 | > 100 µM | > 100 | 67.6 | 98.2 | 39.6 | 29.8 µM | 13.6 µM | 46 µM | 22.1 µM | 34.6 µM | 60 µM | 25.7 µM | 31.1 µM | 28 µM | 19.2 µM
CCOC(=O)Nc1nc(-c2ccccc2)c(C)s1 | > 100 | > 100 | > 100 | > 100 | > 100 | > 100 µM | > 100 | > 100 | > 100 | > 100 | – | – | – | – | – | – | – | – | – | –
NS(=O)(=O)c1ccc(N=Nc2c(O)[nH]c3cccc(CCc4ccncc4)c23)cc1 | > 25 | > 25 | > 25 | > 25 | > 25 | > 25 µM | > 25 | > 25 | > 25 | > 25 | > 25 µM | > 25 µM | > 25 µM | > 25 µM | > 25 µM | > 25 µM | > 25 µM | > 25 µM | > 25 µM | > 25 µM
N#CCC(=O)N/N=C(/C(=O)Nc1ccccc1)C1C(=O)N(c2ccccc2)N=C1N (stereo not given) | > 100 | > 100 | > 100 | > 100 | > 100 | > 100 µM | > 100 | > 100 | > 100 | > 100 | – | – | – | – | – | – | – | – | – | –
CN1C(=O)CNS1(=O)=O | > 100 | > 100 | > 100 | > 100 | > 100 | > 100 µM | > 100 | > 100 | > 100 | > 100 | – | – | – | – | – | – | – | – | – | –
COC(=O)CC12CC(NC(=O)c3csc([C@@H](C[C@H](C(C)C)N(C)C(=O)[C@@H](NC(=O)[C@H]4CCCCN4C)C(C)C)OC(C)=O)n3)(C1)C2 | > 33.3 | > 33.3 | > 33.3 | > 33.3 | > 33.3 | 0.0198 µM and 0.0269 µM | > 33.3 | > 33.3 | > 33.3 | > 33.3 | 0.0303 µM and 0.0148 µM | 0.00337 µM and 0.00778 µM | 0.00364 µM and 0.0055 µM | 0.00446 µM and 0.0121 µM | 0.0074 µM and 0.0204 µM | 0.00289 µM and 0.00759 µM | 0.00441 µM and 0.00955 µM | 0.00439 µM and 0.0105 µM | 0.00446 µM and 0.0202 µM | 0.0036 µM and 0.013 µM
